From US10364263B2, “Cyclic phosphates and cyclic phosphoramidates for the treatment of neurologic disorders” (Retrophin, Inc., priority 2015, dated 2019)
Where two headings read alike, the source gives them in different places.

Key:
[1] = system: PANK2 silenced human neuroblastoma IMR32 cells (PANK2−/−); experiment: Coenzyme A assay in PANK2 silenced cells (LC-MS quantification of free CoA); assay type: cell-based; conditions: compound added twice (24 h + 24 h), relative to 0.1% DMSO controls
Outline: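 Free intracellular CoA was measured by positive-mode LC-MS/MS of 20% TFA extracts, taking 2 μl per 10^6 cells as intracellular volume. Cells were IMR32 with stable lentiviral PANK2 knockdown, dosed twice 24 h apart (48 h total, 0.1% DMSO). Output is fold increase over vehicle.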

[2] = Stability in human plasma; assay type: in vitro ADME; conditions: 37° C.
Outline: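 Test compound at 3 μM (0.1% DMSO) was incubated in mouse or human plasma at 37 °C and sampled in duplicate at 0, 10, 20, 30, 40 and 60 min. Reactions were stopped with acetonitrile/formic acid containing internal standard. Remaining parent was measured by UPLC-MS/MS without a calibration curve.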

[3] = Stability in mouse hepatocytes; assay type: in vitro ADME
[4] = Stability in human hepatocytes; assay type: in vitro ADME; conditions: for half-life at 5 µM: t1/2, Human Hepatocytes; for half-life: 5 μM, 1 million cells/ml, 37° C., human hepatocytes
[5] = human, plasma, Diastereoisomer A (upfield shift in 31P NMR), read-out: t1/2, Human Plasma, Diastereoisomer A (converted)
[6] = t1/2, Mouse Hepatocytes, Diastereoisomer A
[7] = human, plasma, Diastereoisomer B, read-out: t1/2, Human Plasma, Diastereoisomer B (converted)
[8] = t1/2, Mouse Hepatocytes, Diastereoisomer B
[9] = Diastereoisomer A (upfield shift in 31P NMR), read-out: t1/2, Human Plasma, Diastereoisomer A (converted)
[10] = Diastereoisomer A (upfield shift in 31P NMR), 5 μM, 1 million cells/ml, 37° C., mouse hepatocytes, read-out: t1/2, Mouse Hepatocytes, Diastereoisomer A (converted)
[11] = Diastereoisomer A (upfield shift in 31P NMR), read-out: t1/2, Human Hepatocytes, Diastereoisomer A (converted)

SMILES | half-life at 3 µM [2, 5] [min] | half-life at 5 µM [3, 6] [min] | half-life at 5 µM ([4]; Diastereoisomer A) [min] | half-life at 3 µM [2, 7] [min] | half-life at 5 µM [3, 8] [min] | half-life at 5 µM ([4]; Diastereoisomer B) [min] | PANK2−/− CoA (Fold Increase): fold increase in Coenzyme A (CoA) levels relative to controls [1] [Fold Increase] | half-life at 3 µM [2, 9] [min] | t1/2, Human Plasma, Diastereoisomer B ([2]; Diastereoisomer B, 3 μM) [min] | half-life at 5 µM [3, 10] [min] | half-life at 5 µM ([3]; Diastereoisomer B, 5 μM, 1 million cells/ml, 37° C., mouse hepatocytes, read-out: t1/2, Mouse Hepatocytes, Diastereoisomer B (converted)) [min] | half-life [4, 11] [min] | half-life ([4]; Diastereoisomer B, read-out: t1/2, Human Hepatocytes, Diastereoisomer B (converted)) [min]
CC(C)(C)C(=O)OCO[P@@]1(=O)OCC(C)(C)[C@H](C(=O)NCCC(=O)O)O1 [Compound No. 91, 3-((2S,4R)-5,5-dimethyl-2-oxido-2-((pivaloyloxy)methoxy)-1,3,2-dioxaphosphinane-4-carboxamido)propanoic acid] | > 60 | 18 | 67.2 |  |  |  | 4.03 |  |  |  |  |  | 
CCc1cc(C(=O)OCOP2(=O)OCC(C)(C)[C@H](C(=O)NCCC(=O)OC)O2)n(C)n1 (stereo partly drawn) [Compound No. 84, (((4R)-4-((3-methoxy-3-oxopropyl)carbamoyl)-5,5-dimethyl-2-oxido-1,3,2-dioxaphosphinan-2-yl)oxy)methyl 3-ethyl-1-methyl-1H-pyrazole-5-carboxylate] | > 60 | < 15 | < 15 | 57.6 | < 15 | < 15 | 325.47 |  |  |  |  |  | 
COC(=O)CCNC(=O)[C@@H]1OP(=O)(N[C@H](C)C(=O)OC)OCC1(C)C (stereo partly drawn) [compound 16, methyl 3-((4R)-2-(((R)-1-methoxy-1-oxopropan-2-yl)amino)-5,5-dimethyl-2-oxido-1,3,2-dioxaphosphinane-4-carboxamido)propanoate] |  |  |  |  |  |  | 1.21 | > 60 | >60 | 43.2 | 15.6 | > 240 | 80.4
COC(=O)CCNC(=O)[C@@H]1OP(=O)(OCOC(=O)OC(C)C)OCC1(C)C (stereo partly drawn) [Compound No. 69, Methyl 3-((4R)-2-(((isopropoxycarbonyl)oxy)methoxy)-5,5-dimethyl-2-oxido-1,3,2-dioxaphosphinane-4-carboxamido)propanoate] | > 60 | < 15 | < 15 | < 9.6 | < 15 | < 15 | 181.1 |  |  |  |  |  | 
CC1(C)COP(=O)(O)O[C@H]1C(=O)NCCC(=O)O [compound 108, 3-((4R)-2-hydroxy-5,5-dimethyl-2-oxido-1,3,2-dioxaphosphinane-4-carboxamido)propanoic acid] | 49.8 | 15 | 15 |  |  |  | 1.07 |  |  |  |  |  | 
COC(=O)CCNC(=O)[C@@H]1OP(=O)(OCCSC(=O)C(C)(C)C)OCC1(C)C (stereo partly drawn) [Compound No. 2-133, Methyl 3-((4R)-5,5-dimethyl-2-oxido-2-(2-(pivaloylthio)ethoxy)-1,3,2-dioxaphosphinane-4-carboxamido)propanoate] |  | < 15 | < 15 |  | < 15 | < 15 | 89.53 |  |  |  |  |  | 
COC(=O)CCNC(=O)[C@@H]1OP(=O)(OCOC(=O)C(C)(C)C)OCC1(C)C (stereo partly drawn) [Compound No. 65, (((4R)-4-((3-methoxy-3-oxopropyl)carbamoyl)-5,5-dimethyl-2-oxido-1,3,2-dioxaphosphinan-2-yl)oxy)methyl pivalate] | > 60 | < 15 | < 15 | < 9.6 | < 15 | < 15 | 222.6 |  |  |  |  |  | 
COC(=O)CCNC(=O)[C@@H]1OP(=O)(OCOC(=O)c2cncs2)OCC1(C)C (stereo partly drawn) [Compound No. 70, (((4R)-4-((3-methoxy-3-oxopropyl)carbamoyl)-5,5-dimethyl-2-oxido-1,3,2-dioxaphosphinan-2-yl)oxy)methyl thiazole-5-carboxylate] | < 9.6 |  |  | < 9.6 |  |  | 87.75 |  |  |  |  |  | 
COC(=O)CCNC(=O)[C@@H]1OP(=O)(OCOC(=O)c2ccccc2)OCC1(C)C (stereo partly drawn) [Compound No. 64, (((4R)-4-((3-methoxy-3-oxopropyl)carbamoyl)-5,5-dimethyl-2-oxido-1,3,2-dioxaphosphinan-2-yl)oxy)methyl benzoate] | < 9.6 | < 15 | < 15 | < 9.6 | < 15 | < 15 | 278.1 |  |  |  |  |  | 
COC(=O)CCNC(=O)[C@@H]1OP(=O)(NCCN2CCCC2)OCC1(C)C (stereo partly drawn) [compound 109, methyl 3-((4R)-5,5-dimethyl-2-oxido-2-((2-(pyrrolidin-1-yl)ethyl)amino)-1,3,2-dioxaphosphinane-4-carboxamido)propanoate] |  |  |  |  |  |  | 1.87 | > 60 |  | 203 |  | > 240 | 

The next lines start with results.

half-life at 3 µM [2, 5] [min] | half-life at 5 µM [3, 6] [min] | half-life at 5 µM ([4]; Diastereoisomer A) [min] | half-life at 3 µM [2, 7] [min] | half-life at 5 µM [3, 8] [min] | half-life at 5 µM ([4]; Diastereoisomer B) [min] | SMILES | PANK2−/− CoA (Fold Increase): fold increase in Coenzyme A (CoA) levels relative to controls [1] [Fold Increase] | half-life at 3 µM [2, 9] [min] | t1/2, Human Plasma, Diastereoisomer B ([2]; Diastereoisomer B, 3 μM) [min] | half-life at 5 µM [3, 10] [min] | half-life at 5 µM ([3]; Diastereoisomer B, 5 μM, 1 million cells/ml, 37° C., mouse hepatocytes, read-out: t1/2, Mouse Hepatocytes, Diastereoisomer B (converted)) [min] | half-life [4, 11] [min] | half-life ([4]; Diastereoisomer B, read-out: t1/2, Human Hepatocytes, Diastereoisomer B (converted)) [min]
15.6 | < 15 | > 240 | 49.2 | < 15 | 191 | COC(=O)CCNC(=O)[C@@H]1OP(=O)(N[C@@H](C)C(=O)OCc2cccnc2)OCC1(C)C (stereo partly drawn) [compound 24, methyl 3-((4R)-5,5-dimethyl-2-oxido-2-(((S)-1-oxo-1-(pyridin-3-ylmethoxy)propan-2-yl)amino)-1,3,2-dioxaphosphinane-4-carboxamido)propanoate] | 0.92 |  |  |  |  |  | 
57 | 23.4 | < 15 | 54 | 26.4 | < 15 | COC(=O)CCNC(=O)[C@@H]1OP(=O)(N[C@@H](C)C(=O)OCCc2ccccc2)OCC1(C)C (stereo partly drawn) [Compound No. 2, Methyl 3-((4R)-5,5-dimethyl-2-oxido-2-(((S)-1-oxo-1-phenethoxypropan-2-yl)amino)-1,3,2-dioxaphosphinane-4-carboxamido)propanoate] | 6.80 |  |  |  |  |  | 
 | < 15 | < 15 |  | < 15 | < 15 | COC(=O)CCNC(=O)[C@@H]1OP(=O)(N[C@@H](Cc2ccccc2)C(=O)OCc2ccccc2)OCC1(C)C (stereo partly drawn) [compound 10, benzyl ((4R)-4-((3-methoxy-3-oxopropyl)carbamoyl)-5,5-dimethyl-2-oxido-1,3,2-dioxaphosphinan-2-yl)-L-phenylalaninate] | 1.05 |  |  |  |  |  | 
> 60 | < 15 | 18.6 | > 60 | < 15 | < 15 | COC(=O)CCNC(=O)[C@@H]1OP(=O)(NCCC(=O)OCc2ccccc2)OCC1(C)C (stereo partly drawn) [compound 117, benzyl 3-(((4R)-4-((3-methoxy-3-oxopropyl)carbamoyl)-5,5-dimethyl-2-oxido-1,3,2-dioxaphosphinan-2-yl)amino)propanoate] | 1.06 |  |  |  |  |  | 
44.4 | < 15 | 142 | > 60 | < 15 | 65.4 | COC(=O)[C@H](C)NP1(=O)OCC(C)(C)[C@H](C(=O)NCCC(=O)OCc2ccncc2)O1 (stereo partly drawn) [compound 20, (2S)-methyl 2-(((4R)-5,5-dimethyl-2-oxido-4-((3-oxo-3-(pyridin-4-ylmethoxy)propyl)carbamoyl)-1,3,2-dioxaphosphinan-2-yl)amino)propanoate] | 0.9 |  |  |  |  |  | 
 | < 15 | 27.6 |  | < 15 | < 15 | COC(=O)CCNC(=O)[C@@H]1OP(=O)(N[C@@H](C)C(=O)OCc2ccccc2)OCC1(C)C (stereo partly drawn) [Compound No. 11, Benzyl ((4R)-4-((3-methoxy-3-oxopropyl)carbamoyl)-5,5-dimethyl-2-oxido-1,3,2-dioxaphosphinan-2-yl)-L-alaninate] | 0.99 |  |  |  |  |  | 
